How the values were obtained:
[1] = tested on: N2a cells; experiment: Toxicity test (CCK-8 cell proliferation assay) on cells cultured on plates not coated with REP; assay type: cell-based; details: Cultured Cell of C. Ex. 1 (B)
Protocol: (§1) N2a cells ([…], purchased from the ATCC, USA) were seeded at a density of 5x10^5 cells/well into the culture plates coated with REP prepared in Example 1 (hereinafter referred to as "REP-plate"). The cell culture medium was Eagle's Minimum Essential Medium (EMEM) supplemented with 2 mM glutamine, 1 mM sodium pyruvate, 1.5 g/l sodium bicarbonate, 100 units/ml penicillin and 100 µg/ml streptomycin. The REP-plates where N2a cells were seeded were incubated for 3 days at 37°C in a 5% CO2 atmosphere with humidity of 95% to afford the formation of 3D cell clusters.
Cells were cultured in the same manner as in Example 2, with the exception that the plates were not coated with REP.
(§2) To the cell clusters obtained in Example 2 or the cells obtained in Comparative Example 1 was added a solution of PFOA (perfluorooctanoic acid, Mw 414.1 g/mol, Sigma-Aldrich, 171468-5G, 96%) with a concentration of 5 µM, 20 µM, 50 µM, 100 µM, 200 µM, 300 µM, 400 µM, 500 µM, 600 µM, 700 µM, 800 µM, 900 µM, 1,000 µM or 2,000 µM. After 3, 24 or 48 hrs of incubation, the cells were assayed for proliferation using a cell counting kit-8 (CCK-8, Dojindo, Japan).
(§3) The PFOA solution was made by dissolving PFOA in dimethyl sulfoxide (DMSO, Sigma-Aldrich, USA) at a final concentration of 5 µM, 20 µM, 50 µM, 100 µM, 200 µM, 300 µM, 400 µM, 500 µM, 600 µM, 700 µM, 800 µM, 900 µM, 1,000 µM or 2,000 µM.
(§4) For the cell proliferation assay, absorbance (OD) at 450 nm was measured on an amicroplate reader (Multiskan, Thermo USA). From the measurements, inhibitory concentration (IC50) values were calculated using TOXCALC 5.0 (Tidepool Scientific Software, USA).
(§5) A solution of PFOS (perfluorooctane sulfonates; Mw 538.2, Sigma-Aldrich, 77282-10G, ≥98.0 (T)) with a concentration of 5 µM, 20 µM, 50 µM, 100 µM, 200 µM, 300 µM, 400 µM, 500 µM, 600 µM, 700 µM, 800 µM, 900 µM, 1,000 µM or 2, 000 µM was added to the cell clusters obtained in Example 2 and to the cells obtained in Comparative Example 1. After 3, 24 or 48 hrs of incubation, the cells were assayed for proliferation using a cell counting kit-8 (CCK-8, Dojindo, Japan).
(§6) The PFOS solution was made by dissolving PFOS in dimethyl sulfoxide (DMSO, Sigma-Aldrich, USA) at a final concentration of 5 µM, 20 µM, 50 µM, 100 µM, 200 µM, 300 µM, 400 µM, 500 µM, 600 µM, 700 µM, 800 µM, 900 µM, 1,000 µM or 2,000 µM.

[2] = tested on: N2a cells; experiment: Toxicity test (CCK-8 cell proliferation assay) on 3D cell clusters grown on REP-coated plates; assay type: cell-based; details: Cell Cluster of Ex. 2 (A), REP-plate
Protocol: REP was dissolved at a concentration of 10 µM in phosphate buffered saline (PBS), and the 10 µM REP solution was aliquoted in an amount of 50 µl per well into 96-well polystyrene plates and incubated for 1 hr at 37°C. The supernatant was removed from each well to leave REP to adhere to the plates.
as §1, §2, §3, §4, §5, §6

[3] = Mus musculus, N2a, 3 hrs incubation
[4] = Mus musculus, N2a, 24 hrs incubation
[5] = Mus musculus, N2a, 48 hrs incubation

Row | SMILES | IC50 [1, 3] | IC50 [1, 4] | IC50 [1, 5] | IC50 [2, 3] | IC50 [2, 4] | IC50 [2, 5] | IC50 ([1]; 3 hrs incubation) | IC50 ([1]; 24 hrs incubation) | IC50 ([1]; 48 hrs incubation) | IC50 ([2]; 3 hrs incubation) | IC50 ([2]; 24 hrs incubation) | IC50 ([2]; 48 hrs incubation)
1 | O=C(O)C(F)(F)C(F)(F)C(F)(F)C(F)(F)C(F)(F)C(F)(F)C(F)(F)F [PFOA, perfluorooctanoic acid] | 511 µM | 389 µM | 310 µM | 632 µM | 495 µM | 423 µM | – | – | – | – | – | –
2 | O=S(=O)(O)C(F)(F)C(F)(F)C(F)(F)C(F)(F)C(F)(F)C(F)(F)C(F)(F)C(F)(F)F [PFOS, perfluorooctane sulfonates] | – | – | – | – | – | – | 196 µM | 219 µM | 220 µM | 471 µM | 355 µM | 300 µM

Source: EP2808342B1, “Medium for in-vitro toxicity testing and in-vitro toxicity test method using the same” (priority 2013, dated 2014)
